One test deals with JAK2 (Homo sapiens (Human), UniProt O60674). The test can be described thus: Jak biochemical HTRF assay, JAK2. The note with it: recombinant purified GST-tagged catalytic domain, HTRF format. The text has this:
(§1) Jak Biochemical HTRF Assay Protocol
(§2) Subsequent reagent additions employed an Agilent Bravo.

A further test addresses JAK1 (Homo sapiens (Human), UniProt P23458). The test can be described thus: Jak biochemical HTRF assay, JAK1. As to conditions: recombinant purified GST-tagged catalytic domain; HTRF format; [ATP] 31.8 μM.
From the text: as §1, §2
(In TR-FRET formats the signal depends on donor and acceptor labels being close together.)

Molecules are shown by their SMILES.

JAK2, sequence (O60674 849-1124): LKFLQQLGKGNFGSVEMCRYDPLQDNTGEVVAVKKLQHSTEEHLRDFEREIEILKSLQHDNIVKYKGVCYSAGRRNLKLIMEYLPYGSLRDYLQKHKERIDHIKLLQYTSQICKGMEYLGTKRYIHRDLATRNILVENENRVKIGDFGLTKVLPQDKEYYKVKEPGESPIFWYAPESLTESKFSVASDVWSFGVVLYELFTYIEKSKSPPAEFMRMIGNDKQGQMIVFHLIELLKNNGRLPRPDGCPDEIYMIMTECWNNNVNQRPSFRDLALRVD
JAK1, sequence (P23458 875-1153): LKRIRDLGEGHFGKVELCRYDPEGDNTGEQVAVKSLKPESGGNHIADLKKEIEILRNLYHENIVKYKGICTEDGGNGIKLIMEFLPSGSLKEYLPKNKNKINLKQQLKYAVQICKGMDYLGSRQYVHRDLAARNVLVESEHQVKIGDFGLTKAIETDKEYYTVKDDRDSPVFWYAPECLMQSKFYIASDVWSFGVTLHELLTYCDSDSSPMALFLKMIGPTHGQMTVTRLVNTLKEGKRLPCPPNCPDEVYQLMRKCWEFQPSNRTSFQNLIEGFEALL

On to `N#C[C@H]1CCOC[C@@H]1n1cc(C(N)=O)c(Nc2ccc(F)nc2)n1` (single isomer, unassigned) [Example 9-29, 1-[(3R,4S or 3S,4R)-4-cyanotetrahydro-2H-pyran-3-yl]-3-[(6-fluoropyridin-3-yl)amino]-1H-pyrazole-4-carboxamide], for which the values for the IC50 at JAK2 ([ATP] 8.5 μM) and on JAK1 were 5 nM and 0.8 nM, respectively.
On to `C[C@@]1(C#N)CS(=O)(=O)C[C@@H]1n1cc(C(N)=O)c(Nc2ccc(F)cc2)n1` (single isomer, unassigned) [Example 14-2, 1-((3R,4R or 3S,4S)-4-Cyano-4-methyl-1,1-dioxidotetrahydrothiophen-3-yl)-3-((4-fluorophenyl)amino)-1H-pyrazole-4-carboxamide], for which the IC50 at JAK2 ([ATP] […]) amounted to 292 nM; on JAK1, 84 nM.
In the case of `N#C[C@@H]1CN(C(=O)OCCF)CC[C@H]1n1cc(C(N)=O)c(Nc2ccc(F)cc2)n1` (racemic) [Example 5-2, 2-fluoroethyl (3R,4R and 3S,4S)-4-{4-carbamoyl-3-[(4-fluorophenyl)amino]-1H-pyrazol-1-yl}-3-cyanopiperidine-1-carboxylate], the IC50 stood at 104 nM on JAK2 ([ATP] 8.5 μM) and 4 nM at JAK1.
For the molecule `CC(C)(O)C1CC(CN2CC[C@@H](C#N)[C@H](n3cc(C(N)=O)c(Nc4ccc(F)cc4)n3)C2)C1` (mixture of isomers) [Example 6-11, 1-[(3S,4R and 3R,4S)-4-cyano-1-{[3-(1-hydroxy-1-methylethyl)cyclobutyl]methyl}piperidin-3-yl]-3-[(4-fluorophenyl)amino]-1H-pyrazole-4-carboxamide], the IC50 at JAK2 ([ATP] 8.5 μM) was determined as 533 nM; at JAK1, 25 nM.
Turning to `CC(C)(C)OC(=O)N1CC[C@H](n2cc(C(N)=O)c(Nc3ccccc3)n2)[C@H](C#N)C1` (mixture of isomers) [Example 1-1, tert-butyl(3R,4S and 3S,4R)-4-[4-(aminocarbonyl)-3-anilino-1H-pyrazol-1-yl]-3-cyanopiperidine-1-carboxylate], the IC50 is 1270 nM at JAK2 ([ATP] […]) and 108 nM on JAK1.
The like results for `C[C@H]1OCC[C@@H](C#N)[C@@H]1n1cc(C(N)=O)c(Nc2ccnc(F)c2)n1` (mixture of isomers) [Example 10-2, 1-((2S,3R,4S and 2R,3S,4R)-4-cyano-2-methyltetrahydro-2H-pyran-3-yl)-3-((2-fluoropyridin-4-yl)amino)-1H-pyrazole-4-carboxamide] were, in that order, 206 nM and 29 nM.
Take `CCn1ccnc1CN1CC[C@@H](n2cc(C(N)=O)c(Nc3ccc(F)cc3)n2)[C@H](C#N)C1` (racemic) [Example 6-38, 1-{(3R,4R and 3S,4S)-3-cyano-1-[(1-ethyl-1H-imidazol-2-yl)methyl]piperidin-4-yl}-3-[(4-fluorophenyl)amino]-1H-pyrdzole-4-carboxamide]: the IC50 on JAK2 ([ATP] 8.5 μM) is 82 nM; on JAK1, 7 nM.
The corresponding values for `CC(OC(=O)N1CC[C@@H](C#N)C(n2cc(C(N)=O)c(Nc3ccc(F)cc3)n2)C1)C(F)(F)F` (mixture of isomers) [Example 5-70, 2,2,2-trifluoro-1-methylethyl (3S,4R and 3R,4S)-3-{4-carbamoyl-3-[(4-fluorophenyl)amino]-1H-pyrazol-1-yl}-4-cyanopiperidine-1-carboxylate] are 135 nM and 8 nM.
The corresponding values for `Cc1c(CN2CC[C@@H](n3cc(C(N)=O)c(Nc4ccc(F)cc4)n3)[C@H](C#N)C2)cnn1C` (racemic) [Example 6-34, 1-{(3R,4R and 3S,4S)-3-cyano-1-[(1,5-dimethyl-1H-pyrazol-4-yl)methyl]piperidin-4-yl}-3-[(4-fluorophenyl)amino]-1H-pyrazole-4-carboxamide] are 111 nM and 10 nM.
Take `N#C[C@H]1CCOC[C@@H]1n1cc(C(N)=O)c(Nc2ccc(OCC(F)(F)F)nc2)n1` (single isomer, unassigned) [Example 9-36, 1-[(3R,4S or 3S,4R)-4-cyanotetrahydro-2H-pyran-3-yl]-3-{[6-(2,2,2-trifluoroethoxy)pyridin-3-yl]amino}-1H-pyrazole-4-carboxamide]: the IC50 turned out to be 3 nM on JAK2 ([ATP] 8.5 μM) and 0.6 nM at JAK1.

Broadly, the IC50 is the concentration that inhibits the measured activity by half.

The values are drawn from patent US9394282B2, “Pyrazole carboxamides as Janus kinase inhibitors” (Merck Sharp & Dohme Corp., priority 2011, dated 2016).
